Measured values taken from US20040014706A1, “Use of carp inhibitors for the treatment of heart diseases” (priority 2000, published 2004).

Key:
CARP protein [1] = assay: CARP protein in treated rats, Western blot; format: in vivo, Male Wistar rats; conditions: 2.4 mg/kg/d, 4 days
Procedure: (§1) Male Wistar rats were treated with isoprenaline (ISO, 2.4 mg/kg/d, Alzet mini pump) for 4 days. Controls were infused with NaCl. […] To gain further insight into the mechanism by which CARP expression is regulated, isolated myocytes were treated with ISO (1 μM) and phenylephrine (PE, 50 μM). For comparison the effects of the alpha-adrenoceptor agonist phenylephrine (PE, 50 μM) were studied.

[2] = Isoprenaline-induced cardiac hypertrophy in rats (heart weight/body weight); format: in vivo, Male Wistar rats; conditions: 2.4 mg/kg/d, Alzet mini pump, 4 days; vs NaCl controls
Procedure: as §1

CARP protein [3] = assay: CARP protein levels in isolated myocytes treated with adrenoceptor agonists; format: cell-based; conditions: ISO 1 μM, PE 50 μM, n=4
Procedure: as §1

CARP mRNA [4] = assay: CARP mRNA levels in isolated myocytes treated with adrenoceptor agonists and kinase inhibitors; format: cell-based; conditions: for CARP mRNA/GAPDH mRNA: ISO 1 μM (n=9), PE 50 μM (n=11); for reversal of the effects of ISO and PE on CARP mRNA expression: ISO 1 μM, PE 50 μM
Procedure: as §1

CARP mRNA [5] = assay: CARP mRNA expression in left ventricular myocardium of treated rats, Northern blot; format: in vivo, Male Wistar rats; conditions: 2.4 mg/kg/d, 4 days
Procedure: as §1

| Structure (SMILES) | CARP/CSQ (CARP protein level) (CARP protein [3]) | CARP mRNA/GAPDH mRNA (CARP mRNA [4]) | reversal of the effects of ISO and PE on CARP mRNA expression (CARP mRNA [4]) | further results |
| --- | --- | --- | --- | --- |
| CC(C)NCC(O)c1ccc(O)c(O)c1 (centres unmarked) [ISO, isoprenaline] | 161±10 % of control | 148±10 % of control | – | increase in CARP protein (CARP protein [1]; Western blot, vs NaCl): 50%; CARP/calsequestrin (CARP protein [1]; n=6, NaCl control 0.41±0.03): 0.61±0.07; increase in heart weight/body weight ratio [2]: 40%; CARP mRNA/GAPDH mRNA (CARP mRNA [5]; LV myocardium, n=6, NaCl control 1.3±0.12): 3.1±0.5; increase in CARP mRNA expression in left ventricular (LV) myocardium (CARP mRNA [5]; Northern blot, vs NaCl): 140% |
| CNC[C@H](O)c1cccc(O)c1 [PE, phenylephrine] | 172±7 % of control | 178±20 % of control | – | – |
| C[S+]([O-])c1ccc(-c2nc(-c3ccncc3)c(-c3ccc(F)cc3)[nH]2)cc1 (centres unmarked) [SB203580] | – | – | not | – |
| N#CC(=C(/N)Sc1ccccc1N)/C(C#N)=C(\N)Sc1ccccc1N [U0126] | – | – | completely reversed | – |
